For data set [1], the system named is A375res cells. The experiment in a line: Proliferation assay in vemurafenib-resistant melanoma cells A375res. To be noted: 72 hour proliferation assay.
Data set [2] has as its system phospho-ERK in HCT-116 cells. Put plainly: HCT-116 cell pERK assay (AlphaScreen SureFire). Type of data set: cell-based. Particulars: B-Raf wild type, K-Ras mutation. The method, then:
Examples of Formula I are tested against HCT-116 cells harboring wild type B-Raf and K-Ras mutation. The phospho-ERK activities are evaluated as described below.
HCT-116 cells (catalog #CCL-247) are obtained from the American Type Culture Collection (ATCC, Manassas, Va.). Briefly, cells are grown in McCoy's 5A supplemented with 10% characterized fetal bovine serum (Invitrogen, Carlsbad, Calif.), and 1% Penicillin/Streptomycin/L-Glutamine at 37 degrees Celsius, 5% CO2, and 95% humidity. Cells are allowed to expand until reaching 75-90% confluency at which point they are subcultured or harvested for assay use. HCT-116 cells suspended in complete media are added to 384-well tissue culture treated plates (3×10^5 cells/mL; 7,500 cells per well). The cells are incubated overnight at 37 degrees Celsius, 5% CO2, and 95% humidity. Next, test compound or DMSO diluted in complete media is added to the wells (0.25% final DMSO concentration). The plates are then incubated for 4 hours at 37 degrees Celsius, 5% CO2, and 95% humidity. Following compound incubation, the cells are lysed at 4° C. for 20 minutes with shaking. Cell lysates are centrifuged and the supernatant is transferred to a new plate. An aliquot of each lysate is transferred to a white 384-well assay plate. Using the AlphaScreen SureFire pERK kit (Perkin-Elmer, Waltham, Mass.), an acceptor bead mixture is added to each well and incubated for 2 h at room temperature in the dark. A donor bead mixture is then added to each well and incubated for 2 h at room temperature in the dark. Plates are read using a Synergy2 plate reader (Biotek, Winooski, Vt.) in Plate Mode with Timing Control. Read: (F)1: excitation: 680/30 nm, emission: Plug. 2: Excitation: Plug, emission: 570/100 nm. Top mirror 635 nm. Data is analyzed using Prism software (Graphpad, San Diego, Calif.) to calculate IC50 values and Excel software (Microsoft, Redmond, Wash.) to calculate stimulation compared to control.
(In general: Bead proximity is the source of the signal in Alpha formats.)

The test system of data set [3] is A375res cells.

Read-outs that look alike come from different tables or passages of the source.

For the compound `CCCS(=O)(=O)Nc1ccc(F)c(C(=O)c2c[nH]c3ncc(Cl)cc23)c1F` [PLX4720, reference compound], the “IC50 shift A375 to A375res” value in the data set with A375res cells [1] is “more than 27 fold”.

On to `CCCS(=O)(=O)Nc1ccc(F)c(C(=O)c2c[nH]c3ncc(-c4ccc(Cl)cc4)cc23)c1F` [vemurafenib, reference compound], for which the “concentrations at which the pERK signal is stimulated” value in data set [2] is recorded as “up to 3 uM”. Further, the “IC50 shift A375 to A375res” value in the data set on A375res cells [3] is on record as “more than 57 fold”.

The values are drawn from patent publication US9334267B2, “RAF inhibitor compounds” (Deciphera Pharmaceuticals, LLC, priority 2012, dated 2016).
